Assay results reported in patent publication US12150940B2, “WASp-protecting small molecules, compositions, methods and uses thereof in the treatment of innate and acquired immune-related disorders or conditions” (BAR ILAN UNIVERSITY, priority 2016, dated 2024).

Columns and labels:
WASp = biological target: T1, WASp (Homo sapiens, UniProt P42768); assay: WASp expression in anti-CD3/anti-CD28-activated PBMCs (western blot); assay type: cell-based
T1 construct: endogenous in cells; host or cells: primary human platelets from healthy donors
T1 sequence (P42768 1-502): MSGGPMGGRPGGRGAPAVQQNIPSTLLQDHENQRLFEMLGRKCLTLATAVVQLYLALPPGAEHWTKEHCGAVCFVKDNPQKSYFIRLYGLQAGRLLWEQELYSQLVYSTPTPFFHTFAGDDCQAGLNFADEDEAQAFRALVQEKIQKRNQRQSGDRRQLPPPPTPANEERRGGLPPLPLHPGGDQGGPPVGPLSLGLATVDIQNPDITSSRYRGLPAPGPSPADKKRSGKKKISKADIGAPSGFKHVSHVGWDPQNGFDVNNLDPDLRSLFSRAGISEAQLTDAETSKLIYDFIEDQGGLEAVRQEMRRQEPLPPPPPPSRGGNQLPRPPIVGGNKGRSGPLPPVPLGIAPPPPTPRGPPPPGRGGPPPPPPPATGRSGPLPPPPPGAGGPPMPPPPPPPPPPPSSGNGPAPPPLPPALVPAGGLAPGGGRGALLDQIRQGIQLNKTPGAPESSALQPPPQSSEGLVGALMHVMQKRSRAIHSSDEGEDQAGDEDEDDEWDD
Procedure: FIG. 4C-4D. Freshly-isolated PBMCs were incubated with SMC #6 or control at 37° C. for the indicated times. The PBMCs were either co-stimulated (+) with anti-CD3 and anti-CD28 or left unstimulated (−), followed by lysis. Lysates were analyzed for WASp expression by immunoblotting with anti-WASp and anti-GAPDH as loading control (FIG. 4C). Relative WASp expression was determined by densitometric analysis and is presented in a summarizing graph of FIG. 4D. Error bars represent the SE from the mean. P values were calculated versus DMSO-treated control cells by two-tailed Student's t-test, and is indicated therein. Data are representative of three independent experiments.
Jurkat T-cells (FIG. 5A) or Freshly-isolated PBMCs (FIG. 5B) were incubated for 15 min at 37° C. with either control or the indicated WASp-binding SMCs, followed by co-stimulation with anti-CD3 and anti-CD28 and lysis. Freshly-isolated platelets were incubated for 15 min at 37° C. with either control or the indicated WASp-binding SMCs, followed by stimulation with TRAP-6 (10 μM) and lysis (FIG. 5C). Lysates were analyzed for WASp expression by immunoblotting with anti-WASp and anti-GAPDH as loading control. Western blot is representative of three independent experiments. […] Relative WASp expression was determined by densitometric analysis. Error bars represent the SE from the mean. […]

WAS−/− Jurkat T-cells = assay: Lymphocyte activation (CD69, flow cytometry), WAS−/− cells; assay type: cell-based, human
Procedure: 1×10^6 WASp knockout Jurkat T-cell line that expresses only exogenous YFP-WASp harboring the common human WAS and XLT mutation, R86C (WAS−/−/WASp R86C) was pretreated with either negative control or SMC #34. Cells that completely lack WASp expression (WAS^−/−) were also treated with the control. The cells were then stimulated with PMA and Ionomycin. After incubation, the cells were stained with PE-Cy5™-conjugated mouse anti-human CD69 and lymphocyte activation was measured by flow cytometry as described in Experimental procedures. Histogram of negative control versus SMC #34 is presented.
PBMCs or Jurkat cells (about 3×10^5 cells) were incubated for 4 h, at 37° C. with 50 ng/ml PMA and 250 ng/ml lonomycin, or 40 ng/ml PMA and 6 μM Ionomycin, respectively, or left untreated. After incubation, the cells were collected and stained with 1 μg/ml anti-active human LFA-1 antibody (purified from KIM127 hybridoma sup, ATCC Cat #: CRL-2838, Sigma) for 30 min in 37° C., followed by staining with Alexa488-Fluor goat anti-mouse IgG1 secondary antibody (Molecular Probes, Cat #: A-21121), 30 min on ice. Cells were then co-stained with PE-Cy5™-conjugated mouse anti-human CD69 (BD Pharmingen, Cat #: 555532) to measure lymphocyte activation.

Row | WASp degradation in PBMCs (WASp; after 15 min of incubation) | WASp degradation in PBMCs (WASp; after 2 h of incubation, compared with 15 min) | SMILES | lymphocyte activation (CD69) (WAS−/− Jurkat T-cells)
1 | attenuated WASp degradation | more pronounced | CC(=O)N[C@H]1C[C@@H](c2ccc3c(c2)nnn3C)O[C@@H](c2ccc(Cl)cc2)C1 [SMC #6, N-[(2R,4R,6S)-2-(4-chlorophenyl)-6-(1-methylbenzotriazol-5-yl)oxan-4-yl]acetamide] | 
2 |  |  | CC1CCCC(C)N1C(=O)CSc1nnc(COc2cccc3cccnc23)o1 (stereo not drawn) [SMC #34, 1-(2,6-dimethylpiperidin-1-yl)-2-[[5-(quinolin-8-yloxymethyl)-1,3,4-oxadiazol-2-yl]sulfanyl]ethanone] | restored the activation
